From US20250186600A1, “EXCIPIENT COMPOUNDS FOR PROTEIN FORMULATIONS” (Comera Life Sciences, Inc., priority 2020, published 2025)
Values joined by “and” are separate entries in the source; they are usually repeats but may differ in a detail not shown here. Identical values can stand only once.

Legend:
[1] = system: infliximab; assay: Thermal stability at 50° C. with caffeine and excipients, SE-HPLC (Example 63); type: physicochemical; conditions: excipient 0.5 M, caffeine 50 mM, infliximab 10 mg/mL, 5 mM phosphate pH 7.5, 50° C., 180 min
Method: Therapeutic proteins stress leads to aggregation of the protein and a decrease in the active native species. […] The aliquots were withdrawn at 0 min, 90 min and 180 min. […] Diode array detector.

[2] = system: nivolumab; assay: Thermal stability of nivolumab at 40 C for 4 weeks, SE-HPLC (Example 69); conditions: Excipient added at 400 mM; nivolumab 10 mg/ml, 5 mM phosphate pH 7.5, 40 C for 4 weeks
[3] = system: pembrolizumab; assay: Thermal stability of pembrolizumab at 40 C for 4 weeks, SE-HPLC (Example 70); conditions: Excipient added at 400 mM; pembrolizumab 10 mg/ml, 5 mM phosphate pH 7.5, 40 C for 4 weeks
[4] = system: omalizumab; assay: Mechanical shear stress (agitation 72 h), absorbance at 350 nm (Example 47); type: physicochemical; conditions: excipient 0.5 mg/mL, omalizumab 2 mg/mL, 22° C., 72 h agitation at 300 rpm
Method: Excipients that offer protection against shear stresses were identified by agitating therapeutic protein solutions in the presence of the test excipients (listed in Table 48 below) and observing any change in the number of aggregated particles. […] The samples were transferred to a 0.5 mL cryogenic vial (ThermoFisher, Waltham MA) and secured to an orbital shaker. They were then incubated at 22° C. for 72 h with agitation set at 300 rpm. At the end of incubation period, 100 μL of each sample was transferred to 96-well plates, and the absorbance was measured at 350 nm. Any increase in aggregation was measured by observing the changes in light scattering at 350 nm, and comparing those changes to the light scattering at 350 nm of a control formulation (prepared identically to the test samples but without the addition of the excipient). Excipients that are protective in nature were identified by their ability to slow the rate of aggregation and decrease the A350 absorbance value after the agitation step.

[5] = system: ustekinumab-FITC; assay: Mechanical shear stability of ustekinumab-FITC, particle radius by DLS (Example 60); conditions: excipient 5 mg/mL; ustekinumab-FITC 1 mg/mL, 20 mM histidine pH 6, 300 rpm 72 h 23° C.
[6] = system: bovine gamma globulin (BGG); assay: Viscosity of 280 mg/mL BGG formulations with excipient compounds, cone and plate viscometer (Examples 1, 2, 4-6); type: physicochemical
[7] = system: ustekinumab; assay: Thermal stability at 65 deg C., increase in percent monomer by SE-HPLC (Example 55); type: physicochemical; conditions: excipient 5 mg/mL, ustekinumab 1 mg/mL, 20 mM Histidine pH 6.0, 65 deg C., 120 min
Description: Therapeutic proteins are frequently subjected to fluctuations in temperatures, which may lead to changes in their tertiary and secondary structural elements. This leads to aggregation of the protein and a decrease in the active native species.

[8] = system: omalizumab; assay: Freeze/thaw stress (6 cycles), monomer by SE-HPLC (Example 57); type: physicochemical; conditions: excipient 100 mM, omalizumab 2 mg/mL, 20 mM Histidine pH 6.0, freeze (−80° C.)/thaw
Method: Therapeutic proteins are frequently kept at low temperatures to improve their kinetic stability and minimize structural perturbations that could lead to the aggregation of the protein and a decrease in the active native species. In certain cases, this might be done by freezing the formulation until use. However, the low temperatures, concentration gradients, and ice formation during repeated freezing and thawing can stress the protein. […] The formulations were then aliquoted into 0.5 mL cryovials and frozen at −80° C. for 120 min. The samples were then thawed using a water bath kept at room temperature.

[9] = system: ustekinumab; assay: Accelerated aging at 40° C. for 4 weeks, monomer by SE-HPLC (Example 58); type: physicochemical; conditions: excipient 100 mM, ustekinumab 2 mg/mL, 20 mM Histidine pH 6.0, 40° C. for 4 weeks
Method: 1 mL of each sample was aliquoted into 2 mL glass vials (West Pharmaceutical services, PA) and incubated at 40° C. for 4 weeks. The aliquots were withdrawn after 0, 1, 2, 3, and 4 weeks.

[10] = target: T1, PEGylated BSA with 1 PEG chain per BSA molecule (Bos taurus, UniProt P02769); assay: Viscosity of PEGylated BSA with 1 PEG chain per BSA molecule (Example 16); type: physicochemical; conditions: Table 8; versus 228.6 cP with no excipient
T1 construct: purchased Aldrich A7906
T1 sequence (P02769 25-607): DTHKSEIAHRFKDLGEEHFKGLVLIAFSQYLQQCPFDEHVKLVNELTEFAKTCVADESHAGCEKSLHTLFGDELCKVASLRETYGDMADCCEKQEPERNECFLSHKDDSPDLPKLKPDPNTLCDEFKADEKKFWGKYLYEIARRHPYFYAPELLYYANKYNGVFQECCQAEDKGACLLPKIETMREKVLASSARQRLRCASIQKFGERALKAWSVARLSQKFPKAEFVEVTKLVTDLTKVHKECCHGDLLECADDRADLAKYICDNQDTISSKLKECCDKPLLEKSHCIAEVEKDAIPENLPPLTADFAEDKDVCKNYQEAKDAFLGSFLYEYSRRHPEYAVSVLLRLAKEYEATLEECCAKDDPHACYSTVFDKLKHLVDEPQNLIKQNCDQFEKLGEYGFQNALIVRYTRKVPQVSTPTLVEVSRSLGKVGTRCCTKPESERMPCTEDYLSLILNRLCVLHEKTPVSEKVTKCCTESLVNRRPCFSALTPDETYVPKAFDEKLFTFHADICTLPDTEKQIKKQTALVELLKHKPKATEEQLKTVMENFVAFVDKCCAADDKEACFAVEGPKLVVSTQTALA
Method: To a beaker was added 200 mL of a phosphate buffered saline (Aldrich Cat. #P4417) and 4 g of BSA (Aldrich Cat. #A7906) and mixed with a magnetic bar. Next 400 mg of methoxy polyethylene glycol maleimide, MW=5,000, (Aldrich Cat. #63187) was added. The reaction mixture was allowed to react overnight at room temperature. The following day, 20 drops of HCl 0.1 M were added to stop the reaction. […] The reaction mixture was placed in an Amicon centrifuge tube with a molecular weight cutoff (MWCO) of 30 kDa and concentrated to a few milliliters. Next the sample was diluted 20 times with a histidine buffer, 50 mM at a pH of approximately 6, followed by concentrating until a high viscosity fluid was obtained.
The viscometer measurements were completed at ambient temperature.

[11] = target: PEGylated lysozyme with multiple PEG chains per lysozyme molecule (Gallus gallus, UniProt P00698); conditions: Table 10
Sequence of PEGylated lysozyme with multiple PEG chains per lysozyme molecule (P00698 19-147): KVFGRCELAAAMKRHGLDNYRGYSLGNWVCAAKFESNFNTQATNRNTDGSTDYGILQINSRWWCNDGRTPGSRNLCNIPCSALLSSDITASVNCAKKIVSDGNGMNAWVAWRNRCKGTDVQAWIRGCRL
Method: The solution was mixed by gently shaking and the viscosity was measured by a RheoSense microVisc equipped with an A10 channel (100 micron depth) at a shear rate of 500 s-1. The viscometer measurements were completed at ambient temperature.

[12] = system: bovine gamma globulin (BGG); assay: Normalized viscosity of BGG with caffeine and a secondary excipient (Example 40); type: physicochemical; conditions: BGG about 280 mg/mL, 20 mM histidine pH 6, 25° C.
[13] = system: BGG; conditions: Table 15; versus 130.6 cP with no excipient
Method: Each buffer solution contained different excipient or combination of excipients as described in the table below (Table 15). The viscosity of the solutions was measured as described in previous examples.

[14] = system: bevacizumab (AVASTIN®); assay: Viscosity of AVASTIN with caffeine, microVisc (Example 39); type: physicochemical; conditions: for % Viscosity Reduction from Excipient: 10 mg/mL caffeine vs no excipient; for Viscosity with 10 mg/mL added caffeine excipient: 10 mg/mL caffeine, 25 mM histidine HCl
Method: Viscosity was measured by RheoSense microVisc and concentration was determined by absorbance at 280 nm (extinction coefficient, 1.605 mL/mg). […].

[15] = system: omalizumab; assay: DLS viscosity of concentrated omalizumab with nicotinamide mononucleotide and itaconic acid (Example 52); type: physicochemical; conditions: 20 mM His HCl pH 6, excipient stock 1 M or solubility limit
Method: These substances were used as excipients in the following experiment.
The resulting concentrated formulation was analyzed by A280 for protein concentration by making serial dilutions of the concentrated formulation in 20 mM His HCl, loading 100 microliters of each dilution into a UV clear 96 half-well microplate (Greiner Bio-One, Austria), and measuring absorbance at a wavelength of 280 nm with a Synergy HT plate reader (BioTek, Winooski, VT). The blanked, path-length-corrected A280 measurement for each sample was then divided by the respective extinction coefficient and multiplied by the dilution factor to determine the protein concentration. […] The concentrated protein formulation was then combined with the stock excipient solution or a control at a ratio of 9 parts protein formulation: 1 part excipient solution or buffer (for the control), and aliquots were added to the wells of a 384 well microplate (Aurora Microplates, Whitefish, MT). […] After the microplate was shaken, 2 microliters of a 5-fold dilution of polyethylene glycol surface-modified gold nanoparticles having a diameter of 100 nm (nanoComposix, San Diego, CA) in 20 mM His HCl were added to each sample well. […]

Question: With `CO[C@H]1[C@H](O)[C@@H](O)[C@@H](O)[C@H](O)[C@@H]1O` [Pinitol] as the compound, how does the “% change compared to control” value [1] read?
Answer: Its value is 13.1%.

Question: And the “% Monomer remaining” value [2]?
Answer: The value was 85.6%.

Question: And the “% Monomer remaining” value [3]?
Answer: The value was 79.2%.

Question: What does the source list for Madecassoside?
Answer: % decrease of A350 signal vs. control [4]: 73.2%; DLS particle radius (nm) after shear test [5]: 6.4 nm

Question: How did the “Viscosity Reduction” value [6] turn out when `O=C([O-])c1ccccc1O.[Na+]` [Sodium salicylate] was run?
Answer: Its value is 28% and 34%.

Question: And the “Viscosity (cP)” value ([6]; pH 6)?
Answer: The value was 57 cP and 52 cP.

Question: How did the “% increase in monomer content vs. control” value (from here on “% increase”) [7] turn out when `OC[C@H]1O[C@@](CO)(OC[C@@]2(O[C@H]3O[C@H](CO)[C@@H](O)[C@H](O)[C@H]3O)O[C@H](CO)[C@@H](O)[C@@H]2O)[C@@H](O)[C@@H]1O` [Kestose] was run?
Answer: Its value is 5.9%.

Question: And the “% increase” value [8]?
Answer: Its value is 71.18%.

Question: And the “% increase” value [9]?
Answer: The value was 8.4%.

Question: What about the “% Monomer remaining” value [2] of the same compound?
Answer: Its value is 92.4%.

Question: What about the “% Monomer remaining” value [3] of the same compound?
Answer: Its value is 82.6%.

Question: How did the “Viscosity Reduction” value [10] turn out when `CC(=O)[O-].[K+]` [K acetate, potassium acetate] was run?
Answer: The value was 60%.

Question: And the “Viscosity (cP)” value ([11]; PEGylated lysozyme, 500 s-1, ambient temperature, excipient 20 mg/mL)?
Answer: Its value is 22.6 cP.

Question: And the “Viscosity Reduction” value ([11]; versus 24.6 cP with no excipient)?
Answer: Its value is 8%.

Question: Which results are given for `O=C(O)[C@H](O)[C@@H](O)[C@H](O[C@@H]1O[C@H](CO)[C@H](O)[C@H](O)[C@H]1O)[C@H](O)CO` [Lactobionic acid]?
Answer: % change compared to control [1]: 20.8%; % Monomer remaining [2]: 89.8%; % Monomer remaining [3]: 82.1%

Question: Alpha-Cyclodextrin sulfated Na salt was tested. Which “Viscosity Reduction” value [10] did it give?
Answer: Its value is 34%.

Question: How did the “Normalized Viscosity” value ([12]; Excipient A caffeine 15 mg/mL + Excipient B 20 mg/mL) turn out when `N=C(N)NCCC[C@H](N)C(=O)O` [Arginine, reference compound] was run?
Answer: Its value is 0.63.

Question: What about the “Viscosity Reduction (%)” value [13] of the same compound?
Answer: The value was 41%.

Question: Which results are given for `Cn1c(=O)c2c(ncn2C)n(C)c1=O` [Caffeine]?
Answer: % Viscosity Reduction from Excipient ([14]; AVASTIN 190 mg/mL): 36%; Viscosity with 10 mg/mL added caffeine excipient ([14]; AVASTIN 190 mg/mL): 13 cP; % Viscosity Reduction from Excipient ([14]; AVASTIN 213 mg/mL): 73%; Viscosity with 10 mg/mL added caffeine excipient ([14]; AVASTIN 213 mg/mL): 22 cP; % Viscosity Reduction from Excipient ([14]; AVASTIN 266 mg/mL): 62%; Viscosity with 10 mg/mL added caffeine excipient ([14]; AVASTIN 266 mg/mL): 113 cP; Normalized Viscosity ([12]; Excipient A caffeine 15 mg/mL, no Excipient B): 0.77; Viscosity Reduction (%) [13]: 33%

Question: What does the source list for `NC(=O)c1ccc[n+]([C@@H]2O[C@H](COP(=O)([O-])O)[C@@H](O)[C@H]2O)c1` [Nicotinamide mononucleotide]?
Answer: DLS Viscosity, Replicate 1 [15]: 33.6 cP; DLS Viscosity, Replicate 2 [15]: 22.2 cP

Question: What does the source list for Rebaudioside A?
Answer: % decrease of A350 signal vs. control [4]: 73.2%; DLS particle radius (nm) after shear test [5]: 5.8 nm
